Assay results from ChEMBL document CHEMBL5154842, “Unique Carbazole-Oxadiazole Derivatives as New Potential Antibiotics for Combating Gram-Positive and -Negative Bacteria” (J Med Chem, 2022).
Values after ≈ are worked out from the molar mass of the structure shown.

Columns and labels:
Type in all cases: functional
[1] = system: Acinetobacter baumannii; test: Antibacterial activity against Acinetobacter baumannii assessed as inhibition of bacterial growth incubated for 24 hrs by CLSI protocol based two fold serial dilution method
[2] = system: Enterococcus faecalis; test: Antibacterial activity against Enterococcus faecalis assessed as inhibition of bacterial growth incubated for 24 hrs by CLSI protocol based two fold serial dilution method
[3] = system: Escherichia coli; test: Antibacterial activity against Escherichia coli 25922 assessed as inhibition of bacterial growth incubated for 24 hrs by CLSI protocol based two fold serial dilution method
[4] = system: Staphylococcus aureus; test: Antibacterial activity against Staphylococcus aureus assessed as inhibition of bacterial growth incubated for 24 hrs by CLSI protocol based two fold serial dilution method
[5] = system: Klebsiella pneumoniae; test: Antibacterial activity against Klebsiella pneumonia assessed as inhibition of bacterial growth incubated for 24 hrs by CLSI protocol based two fold serial dilution method
[6] = system: Staphylococcus aureus; test: Antibacterial activity against methicillin-resistant Staphylococcus aureus N315 assessed as inhibition of bacterial growth incubated for 24 hrs by CLSI protocol based two fold serial dilution method
[7] = system: Escherichia coli; test: Antibacterial activity against Escherichia coli assessed as inhibition of bacterial growth incubated for 24 hrs by CLSI protocol based two fold serial dilution method
[8] = system: Pseudomonas aeruginosa; test: Antibacterial activity against Pseudomonas aeruginosa assessed as inhibition of bacterial growth incubated for 24 hrs by CLSI protocol based two fold serial dilution method
[9] = system: Staphylococcus aureus; test: Antibacterial activity against Staphylococcus aureus 29213 assessed as inhibition of bacterial growth incubated for 24 hrs by CLSI protocol based two fold serial dilution method
[10] = system: Pseudomonas aeruginosa; test: Antibacterial activity against Pseudomonas aeruginosa ATCC 27853 assessed as inhibition of bacterial growth incubated for 24 hrs by CLSI protocol based two fold serial dilution method
[11] = system: Staphylococcus aureus; test: Antibacterial activity against Staphylococcus aureus 25923 assessed as inhibition of bacterial growth incubated for 24 hrs by CLSI protocol based two fold serial dilution method

| SMILES | MIC [1] [µg/mL] | MIC [2] [µg/mL] | MIC [3] [µg/mL] | MIC [4] [µg/mL] | MIC [5] [µg/mL] | MIC [6] [µg/mL] | MIC [7] [µg/mL] | MIC [8] [µg/mL] | MIC [9] [µg/mL] | MIC [10] [µg/mL] | MIC [11] [µg/mL] |
| --- | --- | --- | --- | --- | --- | --- | --- | --- | --- | --- | --- |
| Fc1ccccc1COc1cccc2c1c1ccccc1n2Cc1nnc(S)o1 | 64 (≈ 158 µM) | 256 (≈ 631 µM) | 16 (≈ 39.5 µM) | 256 (≈ 631 µM) | 32 (≈ 78.9 µM) | 16 (≈ 39.5 µM) | 128 (≈ 316 µM) | 256 (≈ 631 µM) | 64 (≈ 158 µM) | 0.25 (≈ 0.617 µM) | 256 (≈ 631 µM) |
| CCCCCCOc1cccc2c1c1ccccc1n2Cc1nnc(S)o1 | 256 (≈ 671 µM) | 256 (≈ 671 µM) | 4 (≈ 10.5 µM) | 256 (≈ 671 µM) | 256 (≈ 671 µM) | 256 (≈ 671 µM) | 8 (≈ 21 µM) | 256 (≈ 671 µM) | 1 (≈ 2.62 µM) | 256 (≈ 671 µM) | 256 (≈ 671 µM) |
| Fc1ccc(COc2cccc3c2c2ccccc2n3Cc2nnc(S)o2)c(F)c1 | 64 (≈ 151 µM) | 64 (≈ 151 µM) | 16 (≈ 37.8 µM) | 128 (≈ 302 µM) | 32 (≈ 75.6 µM) | 32 (≈ 75.6 µM) | 128 (≈ 302 µM) | 256 (≈ 605 µM) | 64 (≈ 151 µM) | 0.25 (≈ 0.59 µM) | 64 (≈ 151 µM) |
| CC(C)=CCn1c2ccccc2c2c(OCc3nnn[nH]3)cccc21 | 32 (≈ 96 µM) | 256 (≈ 768 µM) | 128 (≈ 384 µM) | 256 (≈ 768 µM) | 32 (≈ 96 µM) | 16 (≈ 48 µM) | 32 (≈ 96 µM) | 256 (≈ 768 µM) | 32 (≈ 96 µM) | 0.5 (≈ 1.5 µM) | 64 (≈ 192 µM) |
| CCSc1nnc2c3ccccc3n(Cc3nnc(S)o3)c2n1 | 256 (≈ 743 µM) | 256 (≈ 743 µM) | 256 (≈ 743 µM) | 256 (≈ 743 µM) | 256 (≈ 743 µM) | 256 (≈ 743 µM) | 256 (≈ 743 µM) | 256 (≈ 743 µM) | 256 (≈ 743 µM) | 256 (≈ 743 µM) | 256 (≈ 743 µM) |
| C=CCSc1nnc2c3ccccc3n(Cc3nnc(S)o3)c2n1 | 256 (≈ 718 µM) | 256 (≈ 718 µM) | 256 (≈ 718 µM) | 256 (≈ 718 µM) | 256 (≈ 718 µM) | 256 (≈ 718 µM) | 256 (≈ 718 µM) | 256 (≈ 718 µM) | 256 (≈ 718 µM) | 256 (≈ 718 µM) | 256 (≈ 718 µM) |
| Clc1cnc(COc2cccc3[nH]c4ccccc4c23)s1 | 256 (≈ 813 µM) | 256 (≈ 813 µM) | 256 (≈ 813 µM) | 256 (≈ 813 µM) | 256 (≈ 813 µM) | 256 (≈ 813 µM) | 256 (≈ 813 µM) | 256 (≈ 813 µM) | 256 (≈ 813 µM) | 256 (≈ 813 µM) | 256 (≈ 813 µM) |
| CC(C)=CCOc1cccc2c1c1ccccc1n2Cc1nnc(S)o1 | 8 (≈ 21.9 µM) | 4 (≈ 10.9 µM) | 4 (≈ 10.9 µM) | 256 (≈ 700 µM) | 4 (≈ 10.9 µM) | 1 (≈ 2.74 µM) | 8 (≈ 21.9 µM) | 256 (≈ 700 µM) | 4 (≈ 10.9 µM) | 2 (≈ 5.47 µM) | 4 (≈ 10.9 µM) |
| c1ccc2c(c1)[nH]c1cccc(OCc3nnn[nH]3)c12 | 128 (≈ 483 µM) | 64 (≈ 241 µM) | 128 (≈ 483 µM) | 128 (≈ 483 µM) | 64 (≈ 241 µM) | 0.5 (≈ 1.88 µM) | 128 (≈ 483 µM) | 128 (≈ 483 µM) | 128 (≈ 483 µM) | 0.5 (≈ 1.88 µM) | 128 (≈ 483 µM) |
| Fc1ccc(COc2cccc3c2c2ccccc2n3Cc2nnc(S)o2)cc1 | 4 (≈ 9.87 µM) | 2 (≈ 4.93 µM) | 2 (≈ 4.93 µM) | 256 (≈ 631 µM) | 4 (≈ 9.87 µM) | 1 (≈ 2.47 µM) | 0.25 (≈ 0.617 µM) | 256 (≈ 631 µM) | 8 (≈ 19.7 µM) | 8 (≈ 19.7 µM) | 2 (≈ 4.93 µM) |
| CCn1cc(C(=O)O)c(=O)c2cc(F)c(N3CCNCC3)cc21 [NORFLOXACIN] | 128 (≈ 401 µM) | 2 (≈ 6.26 µM) | 2 (≈ 6.26 µM) | 2 (≈ 6.26 µM) | 4 (≈ 12.5 µM) | 0.5 (≈ 1.57 µM) | 0.25 (≈ 0.783 µM) | 8 (≈ 25.1 µM) | 4 (≈ 12.5 µM) | 128 (≈ 401 µM) | 1 (≈ 3.13 µM) |
| Sc1nnc(Cn2c3ccccc3c3c(OCCN4CCOCC4)cccc32)o1 | 128 (≈ 312 µM) | 64 (≈ 156 µM) | 128 (≈ 312 µM) | 128 (≈ 312 µM) | 64 (≈ 156 µM) | 128 (≈ 312 µM) | 64 (≈ 156 µM) | 256 (≈ 624 µM) | 32 (≈ 78 µM) | 64 (≈ 156 µM) | 128 (≈ 312 µM) |
| CN[C@H](CC(C)C)C(=O)N[C@H]1C(=O)N[C@@H](CC(N)=O)C(=O)N[C@H]2C(=O)N[C@H]3C(=O)N[C@H](C(=O)N[C@H](C(=O)O)c4cc(O)cc(O)c4-c4cc3ccc4O)[C@H](O)c3ccc(c(Cl)c3)Oc3cc2cc(c3O[C@@H]2O[C@H](CO)[C@@H](O)[C@H](O)[C@H]2O[C@H]2C[C@](C)(N)[C@H](O)[C@H](C)O2)Oc2ccc(cc2Cl)[C@H]1O [VANCOMYCIN] | – | 2 (≈ 1.38 µM) | – | – | – | – | – | – | – | – | – |
| CCCCCCCCCCCCOc1cccc2c1c1ccccc1n2Cc1nnc(S)o1 | 256 (≈ 550 µM) | 256 (≈ 550 µM) | 256 (≈ 550 µM) | 256 (≈ 550 µM) | 256 (≈ 550 µM) | 256 (≈ 550 µM) | 256 (≈ 550 µM) | 256 (≈ 550 µM) | 128 (≈ 275 µM) | 256 (≈ 550 µM) | 256 (≈ 550 µM) |
| CCN(CC)CCOc1cccc2c1c1ccccc1n2Cc1nnc(S)o1 | 256 (≈ 646 µM) | 4 (≈ 10.1 µM) | 256 (≈ 646 µM) | 256 (≈ 646 µM) | 256 (≈ 646 µM) | 128 (≈ 323 µM) | 256 (≈ 646 µM) | 256 (≈ 646 µM) | 256 (≈ 646 µM) | 2 (≈ 5.04 µM) | 256 (≈ 646 µM) |
